From patent US20050222402A1, “Dna encoding rat bombesin receptor subtype-3 (brs-3) and uses thereof” (priority 2001, published 2005)
Positions count from the first letter of the chain named. Non-standard residues stand in square brackets, D forms with d. Residues, ends and D or L forms follow the SMILES beside them. Nle = CCCC[C@H](N)C(=O)O; βAla = NCCC(=O)O

Assays:
Rat BRS-3/E2 (RB3-E2) = molecular target: T1, Rat BRS-3/E2 (RB3-E2) (Rattus norvegicus, UniProt Q8K418, E210K/I208V/N204T/Q192R/R196K/R211K/V198M); assay: Calcium mobilization assay (FLIPR), chimeric receptor; format: cell-based, rat/human
T1 construct: expressed in transfected cells; host or cells: 293EBNA cells, pE3 expression vector
T1 sequence (Q8K418 1-399 Q192R/R196K/V198M/N204T/I208V/E210K/R211K): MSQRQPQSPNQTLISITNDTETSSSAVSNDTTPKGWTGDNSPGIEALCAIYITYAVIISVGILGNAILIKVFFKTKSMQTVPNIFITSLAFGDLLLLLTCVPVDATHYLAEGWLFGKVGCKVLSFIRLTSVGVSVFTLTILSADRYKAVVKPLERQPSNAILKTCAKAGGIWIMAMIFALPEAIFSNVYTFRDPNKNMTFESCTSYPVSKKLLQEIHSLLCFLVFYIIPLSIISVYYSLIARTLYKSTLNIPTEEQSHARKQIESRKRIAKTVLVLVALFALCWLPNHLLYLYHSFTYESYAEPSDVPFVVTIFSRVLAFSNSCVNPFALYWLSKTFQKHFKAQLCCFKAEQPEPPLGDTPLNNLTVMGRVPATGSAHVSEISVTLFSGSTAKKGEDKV
Source text: (§1) Chimeric rat/human BRS-3 genes and substitution mutant rat BRS-3 genes were constructed by using PCR mutagenesis techniques (Fong, T. in Structure-function analysis of G protein coupled receptors, J, Wess, ed, Wiley-Liss, pp. 1-20, (1999)). All the mutant and wild type BRS-3 genes were cloned into pE3 expression vector which contains CMV early promoter, hygromycin-resistance gene and OriP segment from Epstein-Bar virus.
(§2) The functional activity of rat BRS-3 was also studied by measuring the agonist-induced calcium mobilization response using a Fluorescence Imaging Plate Reader (Molecular Devices, Sunnyvale, Calif.). Transfected 293EBNA cells were plated onto poly-D-lysine coated 96-well plates with black wall and clear bottom (Becton Dickinson, Franklin Lakes, N.J.). After 16-48 hr culture, the cells were loaded with 4 uM Fluo-3-AM fluorescent calcium-indicator dye (Molecular Probes, Eugene, OR) in assay buffer (Hank's balanced salts solution, 10 mM HEPES, pH7.4, 0.1% bovine serum albumin, 2.5 mM probenecid).
(§3) The changes in intracellular calcium concentration, as indicated by Fluo-3 fluorescence, were immediately measured by FLIPR. Maximal changes in fluorescence over base line were used to determine agonist response. […]
(§4) The EC50 values were mean±S.E. calculated from dose-response curves of 3-5 repeated experiments using FLIPR assays.

Rat BRS-3/E3 (RB3-E3) = molecular target: T2, Rat BRS-3/E3 (RB3-E3) (Rattus norvegicus, UniProt Q8K418, A302V/D306A/E299Q/E303D/P308H/S300T/V307M/V310I/V311F/Y298S); assay: as above; format: cell-based, rat/human
T2 construct: expressed in transfected cells; host or cells: 293EBNA cells, pE3 expression vector
T2 sequence (Q8K418 1-399 Y298S/E299Q/S300T/A302V/E303D/D306A/V307M/P308H/V310I/V311F): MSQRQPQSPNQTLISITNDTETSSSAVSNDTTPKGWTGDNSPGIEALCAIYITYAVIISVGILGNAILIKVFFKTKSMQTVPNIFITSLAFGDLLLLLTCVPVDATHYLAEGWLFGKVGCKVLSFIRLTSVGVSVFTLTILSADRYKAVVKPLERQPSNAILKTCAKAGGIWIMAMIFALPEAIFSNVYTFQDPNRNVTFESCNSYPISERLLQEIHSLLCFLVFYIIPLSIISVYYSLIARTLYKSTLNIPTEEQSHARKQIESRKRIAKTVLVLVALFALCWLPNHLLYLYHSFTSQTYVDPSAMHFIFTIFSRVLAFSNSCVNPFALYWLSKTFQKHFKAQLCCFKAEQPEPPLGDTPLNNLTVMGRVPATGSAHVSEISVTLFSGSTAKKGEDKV
Source text: as §1, §2, §3, §4

rat BRS-3 = molecular target: T3, rat BRS-3 (Rattus norvegicus, UniProt Q8K418); assay: Phosphatidylinositol hydrolysis functional assay; format: cell-based
T3 construct: utilized to PCR amplify full-length rat BRS-3 cDNA; expressed in transfected cells; host or cells: 293EBNA cells, pE3 expression vector
T3 sequence (Q8K418 1-399): T1 sequence (Q8K418 1-399 Q192R/R196K/V198M/N204T/I208V/E210K/R211K) with R192Q, K196R, M198V, T204N, V208I, K210E, K211R
Experimental: Wild type and mutant BRS-3 constructs were transfected by using lipofectamine reagents (Life Technologies, Rockville, Md.) into 293EBNA cells (Invitrogen, Carlsbad, Calif.) which support episomal replication of plasmid containing Epstein Bar virus OriP segment. Stable cell lines were obtained by selection with 250 ug/ml hygromycin. The cells were maintained as monolayers in Dulbecco's modified Eagle's medium (Life Technologies, Rockville, Md.) supplemented with 10% fetal bovine serum and incubated at 37° C. in a humidified 5% CO2 incubator.
The functional properties of rat BRS-3 were characterized in transfected 293EBNA cells. The transfected 293EBNA cells were plated onto poly-D-lysine coated 12-well plates and incubated in the medium containing 2 uCi/ml [^3H]myo-inositol. The cells were labeled for 48 hrs, and subsequently incubated for 30 minutes in Hank's balanced salt solution containing 10 mM HEPES, 0.1% BSA and 10 mM LiCl.
Since a natural agonist of BRS-3 has not been found, members of the bombesin-like peptide family, including GRP, NMB, bombesin and dYB, were used to stimulate the transfected cells described above, in the same buffer, for 1 hr at 37° C. The reaction was stopped by removal of medium and addition of 10 mM formic acid. The inositol monophosphate fraction was then isolated by anion chromatography as described (Berridge et al. Biochem. J. 212: 473-482 (1983), which is hereby incorporated by reference).

Row | Structure (SMILES) | EC50 (Rat BRS-3/E2 (RB3-E2)) [nM] | EC50 (Rat BRS-3/E3 (RB3-E3)) [nM] | increase in PI hydrolysis (rat BRS-3) [fold] | stimulation of phosphatidylinositol (PI) hydrolysis (inositol monophosphate production) (rat BRS-3)
1 | CCCC[C@H](NC(=O)[C@H](Cc1ccccc1)NC(=O)[C@H](Cc1cnc[nH]1)NC(=O)CCNC(=O)[C@@H](NC(=O)[C@H](C)NC(=O)[C@H](Cc1c[nH]c2ccccc12)NC(=O)[C@H](CCC(N)=O)NC(=O)[C@H](N)Cc1ccc(O)cc1)C(C)C)C(N)=O [dYB, [D-Tyr6-betaAla11-Phe13-Nle14] bombesin (6-14)] (H-[dY]QWAV[βAla]HF[Nle]-NH2) | 990 ± 140 | 2.8 ± 0.6 | – | –
2 | CCCC[C@H](NC(=O)[C@H](Cc1ccccc1)NC(=O)[C@H](Cc1c[nH]cn1)NC(=O)CCNC(=O)[C@@H](NC(=O)[C@H](C)NC(=O)[C@H](Cc1c[nH]c2ccccc12)NC(=O)[C@H](CCC(N)=O)NC(=O)[C@H](N)Cc1ccc(O)cc1)C(C)C)C(N)=O [dYB, [D-Tyr6-betaAla11-Phe13-Nle14] bombesin (6-14)] (H-[dY]QWAV[βAla]HF[Nle]-NH2) | – | – | 9 | significant increase
